Results on four compounds are retold here after patent US20220177538A1, “CO-AGONISTS AT GLP-1 AND GIP RECEPTORS SUITABLE FOR ORAL DELIVERY” (Novo Nordisk A/S, priority 2020, published 2022).

The target of test [1] is T1, human GIP receptor (Homo sapiens, UniProt P48546).
T1 construct: expressed in transfected cells; host or cells: BHK (parent line BHKTS13), clone BHK CRE luc2P hGIPR
T1 sequence (P48546 22-466): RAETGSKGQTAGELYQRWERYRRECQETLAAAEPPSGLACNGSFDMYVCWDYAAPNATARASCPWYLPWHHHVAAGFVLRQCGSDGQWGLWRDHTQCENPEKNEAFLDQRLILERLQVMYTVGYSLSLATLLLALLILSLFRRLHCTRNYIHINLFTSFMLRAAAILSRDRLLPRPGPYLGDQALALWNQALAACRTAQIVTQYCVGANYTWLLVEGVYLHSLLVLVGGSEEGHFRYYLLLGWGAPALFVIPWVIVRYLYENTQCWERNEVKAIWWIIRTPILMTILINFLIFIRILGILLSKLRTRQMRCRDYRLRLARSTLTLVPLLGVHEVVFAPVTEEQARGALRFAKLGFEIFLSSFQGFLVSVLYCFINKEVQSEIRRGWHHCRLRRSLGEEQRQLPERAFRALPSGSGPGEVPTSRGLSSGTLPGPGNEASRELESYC
Kind of test: In vitro functional potency, CRE luciferase reporter, whole BHK cells (hGIPR). It counts as cell-based. Conditions: BHK CRE luc2P hGIPR cells. The procedure:
(§1) The in vitro functional potency is the measure of target receptor activation in a whole cell assay.
(§2) In vitro functional potency was determined by measuring the response of the target receptor in a reporter gene assay in individual cell lines. […] When the respective receptor is activated, it results in the production of cAMP, which in turn results in expression of the luciferase protein. When assay incubation is completed, luciferase substrate (luciferin) is added resulting in the enzymatic conversion of luciferin to oxyluciferin and producing bioluminescence. The luminescence is measured as the readout for the assay.
(§3) The cells lines used in these assays were BHK cells with BHKTS13 as a parent cell line. The cell lines were derived from a clone containing the CRE luciferase element and were established by further transfection with the respective human receptor to obtain the relevant cell line: BHK CRE luc2P hGLP-1R or BHK CRE luc2P hGIPR. The cells were cultured at 37° C. with 5% CO2 in Cell Culture Medium. They were aliquoted and stored in liquid nitrogen. The cells were kept in continuous culture and were seeded out the day before each assay.
(§4) GLP-1R Cell Culture Medium consisted of DMEM medium with 10% FBS, 500 µg/mL G418, and 300 µg/mL hygromycin. GIPR Cell Culture Medium consisted of DMEM medium with 10% FBS, 400 µg/mL G418, and 300 µg/mL hygromycin. Assay Buffer consisted of DMEM w/o phenol red, 10 mM Hepes, 1× Glutamax. 1% ovalbumin, and 0.1% Pluronic F-68 with the addition of HSA at twice the final assay concentration.
(§5) 1) Cells were plated at 5000 cells/well and incubated overnight in the assay plate. 2) Cells were washed once in DPBS. 3) Stocks of the test compounds and reference compounds in concentrations ranging from […] were diluted 1:150 in Assay Buffer. Compounds were then diluted 1:10 in column 1 of a 96 deep well dilution plate and then carried across the row creating a 3.5 fold, 12 point dilution curve. 4) Assay Buffer (50 μl aliquot) with or without HSA was added to each well in the assay plate. 5) A 50 μl aliquot of compound or blank was transferred from the dilution plate to the assay plate containing the Assay Buffer with or without HSA. 6) The assay plate was incubated for 3 h in a 5% CO2 incubator at 37° C. 7) The cells were washed once with DPBS. 8) A 100 μl aliquot of DPBS was added to each well of the assay plate. 9) A 100 μl aliquot of steadylite plus reagent (light sensitive) was added to each well of the assay plate. 10) Each assay plate was covered with aluminum foil to protect it from light and shaken at 250 RPM for 30 min at room temperature. 11) Each assay plate was read in a microtiter plate reader.
(§6) The data from the microtiter plate reader was first regressed in an Excel in order to calculate the x-axis, log scale concentrations based on the individual test compound's stock concentration and the dilutions of the assay. […] The software performs a non-linear regression (log(agonist) vs response). A minimum of two replicates was measured for each sample. The reported values are averages of the replicates.
In general terms: In a reporter assay the amount or activity of a reporter protein is the signal.

Test [2] has as its target human GLP-1 receptor (Homo sapiens, UniProt P43220). The experiment in a line: In vitro functional potency, CRE luciferase reporter, whole BHK cells (hGLP-1R). It counts as cell-based. Set-up: expressed in transfected cells; host or cells: BHK (parent line BHKTS13), clone BHK CRE luc2P hGLP-1R. To be noted: BHK CRE luc2P hGLP-1R cells. On the procedure: as §1, §2, §3, §4, §5, §6

Where [3] appears, read: 0% HSA, read-out: hGIPR, CRE Luc 0% HSA EC50.
Where [4] appears, read: hGIPR, CRE Luc 1% HSA EC50, 1% HSA.
The mark [5] stands for this setting: 0% HSA, read-out: hGLP-1R, CRE Luc 0% HSA EC50.
The mark [6] stands for this setting: hGLP-1R, CRE Luc 1% HSA EC50, 1% HSA.

Structures are written as SMILES. pEC50: −log10 of the molar value. Read-outs that look alike come from different tables or passages of the source. Starred links: 1 amine or outer side, 2 acyl side, 3 side chain; linkers in the order of their positions; H or OH if unused. Non-standard residues stand in square brackets, D forms with d. Residues, ends and D or L forms follow the SMILES beside them. Groups on a side chain read outwards from the residue. *: point of attachment. C18 diacid = O=C(O)CCCCCCCCCCCCCCCCC(=O)*; C16 diacid = O=C(O)CCCCCCCCCCCCCCC(=O)*; γGlu = O=C(O)[C@H](CCC(=O)[*:2])N[*:1]; εLys = N[C@@H](CCCCN[*:1])C(=O)[*:2]; Aib = CC(C)(N)C(=O)O

As a reminder, the pEC50 is the EC50 on a negative log10 scale, so that one unit is a factor of ten.

Sequence of human GLP-1 receptor (P43220 24-463): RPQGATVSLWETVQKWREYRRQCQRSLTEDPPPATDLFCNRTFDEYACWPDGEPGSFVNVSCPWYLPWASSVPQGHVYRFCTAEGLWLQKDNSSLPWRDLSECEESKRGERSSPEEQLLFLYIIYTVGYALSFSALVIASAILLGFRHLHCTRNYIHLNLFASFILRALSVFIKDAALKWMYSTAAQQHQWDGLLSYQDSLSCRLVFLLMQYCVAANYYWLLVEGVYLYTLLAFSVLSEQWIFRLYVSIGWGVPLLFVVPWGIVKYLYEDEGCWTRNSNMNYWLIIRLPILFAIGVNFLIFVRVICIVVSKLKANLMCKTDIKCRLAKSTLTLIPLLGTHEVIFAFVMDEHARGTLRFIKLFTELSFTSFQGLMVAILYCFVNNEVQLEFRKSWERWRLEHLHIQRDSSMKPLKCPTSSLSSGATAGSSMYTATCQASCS

In the case of `CC[C@H](C)[C@H](NC(=O)[C@H](CO)NC(=O)[C@H](Cc1ccc(O)cc1)NC(=O)[C@H](CC(=O)O)NC(=O)[C@H](CO)NC(=O)[C@@H](NC(=O)[C@H](Cc1ccccc1)NC(=O)[C@@H](NC(=O)CNC(=O)[C@H](CCC(=O)O)NC(=O)C(C)(C)NC(=O)[C@@H](N)Cc1ccc(O)cc1)[C@@H](C)O)[C@@H](C)O)C(=O)N[C@@H](CC(C)C)C(=O)N[C@@H](CC(C)C)C(=O)N[C@@H](CCC(=O)O)C(=O)N[C@@H](CCCCNC(=O)[C@@H](N)CCCCNC(=O)[C@@H](N)CCCCNC(=O)CC[C@H](NC(=O)CCCCCCCCCCCCCCCCC(=O)O)C(=O)O)C(=O)N[C@@H](CCC(N)=O)C(=O)N[C@@H](C)C(=O)N[C@@H](C)C(=O)N[C@@H](CCCNC(=N)N)C(=O)N[C@@H](CCC(=O)O)C(=O)N[C@@H](Cc1ccccc1)C(=O)N[C@H](C(=O)N[C@@H](CC(N)=O)C(=O)N[C@@H](Cc1c[nH]c2ccccc12)C(=O)N[C@@H](CC(C)C)C(=O)N[C@@H](CC(C)C)C(=O)N[C@@H](C)C(=O)NCC(=O)NCC(=O)N1CCC[C@H]1C(=O)N[C@@H](CO)C(=O)N[C@@H](CO)C(=O)NCC(=O)N[C@@H](C)C(=O)N1CCC[C@H]1C(=O)N1CCC[C@H]1C(=O)N1CCC[C@H]1C(=O)N[C@@H](CO)C(=O)O)C(C)C` [Compound 22] (H-Y[Aib]EGTFTSDYSILLEK([εLys-εLys-γGlu-C18 diacid])QAAREFVNWLLAGGPSSGAPPPS-OH), the pEC50 in test [1] (setting [3]) was 11.21; in test [1] (setting [4]), 9.77; in test [2] (setting [5]), 11.55; in test [2] (setting [6]), 9.77.
Regarding `CC[C@H](C)[C@H](NC(=O)[C@H](Cc1ccccc1)NC(=O)[C@H](CCC(=O)O)NC(=O)[C@H](CCCNC(=N)N)NC(=O)[C@H](C)NC(=O)[C@H](C)NC(=O)[C@H](CCC(N)=O)NC(=O)[C@H](CCC(=O)O)NC(=O)[C@H](CCC(=O)O)NC(=O)[C@H](CC(C)C)NC(=O)[C@H](CC(C)C)NC(=O)[C@@H](NC(=O)[C@H](CO)NC(=O)[C@H](Cc1ccc(O)cc1)NC(=O)[C@H](CC(=O)O)NC(=O)[C@H](CO)NC(=O)[C@@H](NC(=O)[C@H](Cc1ccccc1)NC(=O)[C@@H](NC(=O)CNC(=O)[C@H](CCC(=O)O)NC(=O)C(C)(C)NC(=O)[C@@H](N)Cc1ccc(O)cc1)[C@@H](C)O)[C@@H](C)O)[C@@H](C)CC)C(=O)N[C@@H](CCC(=O)O)C(=O)N[C@@H](Cc1c[nH]c2ccccc12)C(=O)N[C@@H](CC(C)C)C(=O)N[C@@H](CC(C)C)C(=O)N[C@@H](C)C(=O)NCC(=O)NCC(=O)N1CCC[C@H]1C(=O)N[C@@H](CO)C(=O)N[C@@H](CCCCNC(=O)[C@@H](N)CCCCNC(=O)[C@@H](N)CCCCNC(=O)CC[C@H](NC(=O)CCCCCCCCCCCCCCC(=O)O)C(=O)O)C(=O)NCC(=O)N[C@@H](C)C(=O)N1CCC[C@H]1C(=O)N1CCC[C@H]1C(=O)N1CCC[C@H]1C(=O)N[C@@H](CO)C(=O)O` [Compound 46] (H-Y[Aib]EGTFTSDYSILLEEQAAREFIEWLLAGGPSK([εLys-εLys-γGlu-C16 diacid])GAPPPS-OH), the pEC50 in test [1] (setting [3]) was 11.74; in test [1] (setting [4]), 10.01; in test [2] (setting [5]), 11.82; in test [2] (setting [6]), 9.96.
Regarding `CC[C@H](C)[C@H](NC(=O)[C@H](Cc1ccccc1)NC(=O)[C@H](CCC(=O)O)NC(=O)[C@H](CCCNC(=N)N)NC(=O)[C@H](C)NC(=O)[C@H](C)NC(=O)[C@H](CCC(N)=O)NC(=O)[C@H](CCC(=O)O)NC(=O)[C@H](CCC(=O)O)NC(=O)[C@H](CC(C)C)NC(=O)[C@H](Cc1ccc(O)cc1)NC(=O)[C@@H](NC(=O)[C@H](CO)NC(=O)[C@H](Cc1ccc(O)cc1)NC(=O)[C@H](CC(=O)O)NC(=O)[C@H](CO)NC(=O)[C@@H](NC(=O)[C@H](Cc1ccccc1)NC(=O)[C@@H](NC(=O)CNC(=O)[C@H](CCC(=O)O)NC(=O)C(C)(C)NC(=O)[C@@H](N)Cc1ccc(O)cc1)[C@@H](C)O)[C@@H](C)O)[C@@H](C)CC)C(=O)N[C@@H](CC(N)=O)C(=O)N[C@@H](Cc1c[nH]c2ccccc12)C(=O)N[C@@H](CC(C)C)C(=O)N[C@@H](CC(C)C)C(=O)N[C@@H](C)C(=O)NCC(=O)NCC(=O)N1CCC[C@H]1C(=O)N[C@@H](CO)C(=O)N[C@@H](CCCCNC(=O)[C@@H](N)CCCCNC(=O)[C@@H](N)CCCCNC(=O)CC[C@H](NC(=O)CCCCCCCCCCCCCCCCC(=O)O)C(=O)O)C(=O)NCC(=O)N[C@@H](C)C(=O)N1CCC[C@H]1C(=O)N1CCC[C@H]1C(=O)N1CCC[C@H]1C(=O)N[C@@H](CO)C(=O)O` [Compound 42] (H-Y[Aib]EGTFTSDYSIYLEEQAAREFINWLLAGGPSK([εLys-εLys-γGlu-C18 diacid])GAPPPS-OH), the pEC50 in test [1] (setting [3]) was 11.23; in test [1] (setting [4]) it was 9.51; in test [2] (setting [5]) it was 11.64; in test [2] (setting [6]), 10.08.
Turning to `CC[C@H](C)[C@H](NC(=O)[C@H](Cc1ccccc1)NC(=O)[C@H](CCCCNC(=O)[C@@H](N)CCCCNC(=O)[C@@H](N)CCCCNC(=O)CC[C@H](NC(=O)CCCCCCCCCCCCCCCCC(=O)O)C(=O)O)NC(=O)[C@H](CCCNC(=N)N)NC(=O)[C@H](C)NC(=O)[C@H](C)NC(=O)[C@H](CCC(N)=O)NC(=O)[C@H](CCC(=O)O)NC(=O)[C@H](CCC(=O)O)NC(=O)[C@H](CC(C)C)NC(=O)[C@H](CC(C)C)NC(=O)[C@@H](NC(=O)[C@H](CO)NC(=O)[C@H](Cc1ccc(O)cc1)NC(=O)[C@H](CC(=O)O)NC(=O)[C@H](CO)NC(=O)[C@@H](NC(=O)[C@H](Cc1ccccc1)NC(=O)[C@@H](NC(=O)CNC(=O)[C@H](CCC(=O)O)NC(=O)C(C)(C)NC(=O)[C@@H](N)Cc1ccc(O)cc1)[C@@H](C)O)[C@@H](C)O)[C@@H](C)CC)C(=O)N[C@@H](CC(N)=O)C(=O)N[C@@H](Cc1c[nH]c2ccccc12)C(=O)N[C@@H](CC(C)C)C(=O)N[C@@H](CC(C)C)C(=O)N[C@@H](C)C(=O)NCC(=O)NCC(=O)N1CCC[C@H]1C(=O)N[C@@H](CO)C(=O)N[C@@H](CO)C(=O)NCC(=O)N[C@@H](C)C(=O)N1CCC[C@H]1C(=O)N1CCC[C@H]1C(=O)N1CCC[C@H]1C(=O)N[C@@H](CO)C(=O)O` [Compound 39] (H-Y[Aib]EGTFTSDYSILLEEQAARK([εLys-εLys-γGlu-C18 diacid])FINWLLAGGPSSGAPPPS-OH), the pEC50 in test [1] (setting [3]) was 10.55; in test [1] (setting [4]), 9.44; in test [2] (setting [5]), 11.09; in test [2] (setting [6]) it was 9.87.
